Key:
EAEC = experiment: Agar diffusion growth inhibition zone, EAEC; format: cell-based, Enteroaggregative E. coli; details: for zone of inhibition at 100 mg/mL / zone of inhibition at 150 mg/mL: Escherichia coli, 6 mm = no activity
Protocol: (§1) Among the bacterial agents tested Gram positive and Gram negative bacterial groups represented by Staphylococcus aureus and Enterococcus species and pathogenic members of Enterobacteriaceae, Vibronaceae, Aeromonadaceae, Pseudomonadaceae were tested. Freshly sub-cultured bacterial strains were inoculated into peptone water and incubated for 4 hours at 37° C. and adjusted to a turbidity of 0.5 (Gram Negative Bacilli), 1 (Gram Positive Cocci) and 4 (Pus cells, GNB, & few Budding yeast cells) Mc Farland standards (10^8 CFU/ml) respectively.
(§2) The different bioactive compounds and their derivatives were dissolved and diluted with solvents (DMSO), number of subsequent dilutions was performed to obtain different concentrations of the bioactive compounds and their derivatives. (Working Concentrations).
(§3) Agar well diffusion method is widely used to evaluate the antimicrobial activity of plants or other synthetic products. The suspension (microbial inoculum) was used to inoculate into Muller Hinton Agar Petri plates by lawn culture. Well (diameter 6 mm) were punched in the agar by sterile borer and filled with 50 μl of dissolved extracts. Plates were incubated in incubator at 37° C. for 24 hours and measured the growth inhibition zone diameters in mm compared with that of control (DMSO) showing no growth.
(§4) The bioactive compounds were tested with desired concentrations in 6 mm filter paper discs (Whatman, no. 3) were impregnated with 10 μL of each of the different dilutions. The discs were allowed to remain at room temperature until complete diluent evaporation and kept under refrigeration until ready to be used. 10 μL of diluents used to products were used as control. Tests were performed by Agar disk-diffusion testing method, which is the official method used in many clinical microbiology laboratories for routine antimicrobial susceptibility testing.
(§5) Similar to the procedure used in Agar well diffusion method, the suspension (microbial inoculum) was used to inoculate into Muller Hinton Agar Petri plates by lawn culture. Then, filter paper discs (about 6 mm in diameter), containing the test compound at a desired concentration, were placed on the agar surface. The Petri dishes were incubated under suitable incubation conditions.
(§6) Bioactive compounds showing zone of inhibition beyond the size of 6 mm are considered to be having an anti-microbial activity.

Aeromonas sp. = experiment: Agar diffusion growth inhibition zone, Aeromonas sp.; format: cell-based, Aeromonas species; details: Aeromonas sp., 6 mm = no activity
Protocol: as §1, §2, §3, §4, §5, §6

Vibrio cholera = experiment: Agar diffusion growth inhibition zone, Vibrio cholera; format: cell-based, Vibrio cholerae; details: Vibrio cholerae
Protocol: (§7) Agar well diffusion method is widely used to evaluate the antimicrobial activity of plants or other synthetic products. The suspension (microbial inoculum) was used to inoculate into Muller Hinton Agar Petri plates by lawn culture. Well (diameter 6 mm) were punched in the agar by sterile borer and filled with 50 μl of dissolved extracts. Plates were incubated in incubator at 37° C. for 24 hours and measured the growth inhibition zone diameters in mm compared with that of control (DMSO) showing no growth. The antimicrobial agent diffuses in the agar medium and inhibits the growth of the microbial strain tested (Valgas et al., (2016) Methods for in vitro evaluating antimicrobial activity: A review. Journal of Pharmaceutical Analysis. 6(2):71-9).
(§8) Similar to the procedure used in Agar well diffusion method, the suspension (microbial inoculum) was used to inoculate into Muller Hinton Agar Petri plates by lawn culture. Then, filter paper discs (about 6 mm in diameter), containing the test compound at a desired concentration, were placed on the agar surface. The Petri dishes were incubated under suitable incubation conditions. Generally, antimicrobial agent diffuses into the agar and inhibits germination and growth of the test microorganism and then the diameters of inhibition growth zones are measured (Valgas et al., (2007) Screening methods to determine antibacterial activity of natural products. Brazilian Journal of Microbiology. 38:369-80; Balouiri M et al., (2016) Methods for in vitro evaluating antimicrobial activity: A review. Journal of Pharmaceutical Analysis. 6(2):71-9).

S. aureus = experiment: Agar diffusion growth inhibition zone, S. aureus; format: cell-based, Staphylococcus aureus; details: Staphylococcus aureus, 6 mm = no activity
Protocol: as §1, §2, §3, §4, §5, §6

Enterococcus sp. = experiment: Agar diffusion growth inhibition zone, Enterococcus sp.; format: cell-based, Enterococcus species; details: 6 mm = no activity
Protocol: as §1, §2, §3, §4, §5, §6

ETEC = experiment: Agar diffusion growth inhibition zone, ETEC; format: cell-based, Enterotoxigenic E. coli; details: for inhibition of growth: ETEC; for zone of inhibition at 100000 µg/disc / zone of inhibition at 150000 µg/disc: Escherichia coli
Protocol: as §7, §8

Klebsiella sp. = experiment: Agar diffusion growth inhibition zone, Klebsiella sp.; format: cell-based, Klebsiella species; details: 6 mm = no activity
Protocol: as §1, §2, §3, §4, §5, §6

Proteus sp. = experiment: Agar diffusion growth inhibition zone, Proteus sp.; format: cell-based, Proteus species; details: Proteus sp.; 150 mg; 6 mm = no activity
Protocol: as §1, §2, §3, §4, §5, §6

Pseudomonas sp. = experiment: Agar diffusion growth inhibition zone, Pseudomonas sp.; format: cell-based, Pseudomonas species; details: Pseudomonas
Protocol: as §7, §8

Pleisiomonas sp. = experiment: Agar diffusion growth inhibition zone, Pleisiomonas sp.; format: cell-based, Pleisiomonas species; details: for zone of inhibition at 100 mg/mL / zone of inhibition at 150 mg/mL: Pleisiomonas sp., 6 mm = no activity
Protocol: as §1, §2, §3, §4, §5, §6

Shigella sp. = experiment: Agar diffusion growth inhibition zone, Shigella sp.; format: cell-based, Shigella species; details: Shigella
Protocol: as §7, §8

Candida abicans = experiment: Agar diffusion growth inhibition zone, Candida abicans; format: cell-based, Candida albicans; details: 6 mm = no activity
Protocol: as §1, §2, §3, §4, §5, §6

E. coli ATCC 25922 = experiment: Agar diffusion growth inhibition zone, E. coli ATCC 25922; format: cell-based; details: Escherichia coli, 6 mm = no activity; for zone of inhibition at 100 mg/mL: ATCC25922, 100 mg; for zone of inhibition at 150 mg/mL: ATCC25922, 150 mg
Protocol: as §1, §2, §3, §4, §5, §6

Salmonella typhimurium = experiment: Agar diffusion growth inhibition zone, Salmonella typhimurium; format: cell-based; details: Salmonella enterica, 6 mm = no activity
Protocol: as §1, §2, §3, §4, §5, §6

Citrobacter sp. = experiment: Agar diffusion growth inhibition zone, Citrobacter sp.; format: cell-based, Citrobacter species; details: 6 mm = no activity
Protocol: as §1, §2, §3, §4, §5, §6

Row | SMILES | zone of inhibition at 100 mg/mL (EAEC) | zone of inhibition at 150 mg/mL (EAEC) | zone of inhibition at 100 mg/mL (Aeromonas sp.) | zone of inhibition at 150 mg/mL (Aeromonas sp.) | zone of inhibition at 100000 µg/disc (Vibrio cholera) | zone of inhibition at 150000 µg/disc (Vibrio cholera) | zone of inhibition at 100 mg/mL (S. aureus) | zone of inhibition at 150 mg/mL (S. aureus) | zone of inhibition at 100 mg/mL (Enterococcus sp.) | zone of inhibition at 150 mg/mL (Enterococcus sp.) | zone of inhibition at 100000 µg/disc (ETEC) | zone of inhibition at 150000 µg/disc (ETEC) | zone of inhibition at 100 mg/mL (Klebsiella sp.) | zone of inhibition at 150 mg/mL (Klebsiella sp.) | zone of inhibition at 150 mg/mL (Proteus sp.) | zone of inhibition at 100000 µg/disc (Pseudomonas sp.) | zone of inhibition at 150000 µg/disc (Pseudomonas sp.) | zone of inhibition at 100 mg/mL (Pleisiomonas sp.) | zone of inhibition at 150 mg/mL (Pleisiomonas sp.) | zone of inhibition at 100000 µg/disc (Shigella sp.) | other results
1 | COc1cc(/C=C/C(=O)COC(=O)/C=C/c2ccc(O)c(OC)c2)ccc1O [compound 5, Calebin-A] | 7 mm | 7 mm | 6 mm | 6 mm | 6 mm | 6 mm | 6 mm | 6 mm | 6 mm | 6 mm | 11 mm | 11 mm | 6 mm | 6 mm | 6 mm | 6 mm | 6 mm | 6 mm | 6 mm | 6 mm | inhibition of growth (EAEC): inhibited; inhibition of growth (ETEC): significantly inhibited the growth; zone of inhibition at 150000 µg/disc (Shigella sp.): 6 mm; zone of inhibition at 100 mg/mL (Candida abicans): 6 mm; zone of inhibition at 150 mg/mL (Candida abicans): 6 mm; zone of inhibition at 100 mg/mL (E. coli ATCC 25922): 6 mm; zone of inhibition at 150 mg/mL (E. coli ATCC 25922): 6 mm; zone of inhibition at 100 mg/mL (Salmonella typhimurium): 6 mm; zone of inhibition at 150 mg/mL (Salmonella typhimurium): 6 mm; zone of inhibition at 100 mg/mL (Citrobacter sp.): 6 mm; zone of inhibition at 150 mg/mL (Citrobacter sp.): 6 mm
2 | COc1cc(/C=C/C(=O)COC(=O)/C=C/c2ccc(OC(C)=O)c(OC)c2)ccc1OC(C)=O [compound 6, O,O′- Diacetylcalebin-A] | 7 mm | 7 mm | 6 mm | 6 mm | 6 mm | 6 mm | 6 mm | 6 mm | 6 mm | 6 mm | 8 mm | 8 mm | 6 mm | 6 mm | 6 mm | 6 mm | 6 mm | 6 mm | 6 mm | 6 mm | inhibition of growth (EAEC): inhibited; inhibition of growth (ETEC): significantly inhibited the growth; zone of inhibition at 150000 µg/disc (Shigella sp.): 6 mm; zone of inhibition at 100 mg/mL (Candida abicans): 6 mm; zone of inhibition at 150 mg/mL (Candida abicans): 6 mm; zone of inhibition at 100 mg/mL (E. coli ATCC 25922): 6 mm; zone of inhibition at 150 mg/mL (E. coli ATCC 25922): 6 mm; zone of inhibition at 100 mg/mL (Salmonella typhimurium): 6 mm; zone of inhibition at 150 mg/mL (Salmonella typhimurium): 6 mm; zone of inhibition at 100 mg/mL (Citrobacter sp.): 6 mm; zone of inhibition at 150 mg/mL (Citrobacter sp.): 6 mm
3 | CCOC(=O)Oc1ccc(/C=C/C(=O)COC(=O)/C=C/c2ccc(OC(=O)OCC)c(OC)c2)cc1OC [compound 7, Diethylcalebin-A dicarbonate] | 9 mm | 9 mm | 6 mm | 6 mm | 6 mm | 6 mm | 6 mm | 6 mm | 6 mm | 6 mm | 10 mm | 10 mm | 6 mm | 6 mm | 6 mm | 6 mm | 6 mm | 10 mm | 10 mm | 6 mm | inhibition of growth (EAEC): inhibited; inhibition of growth (ETEC): significantly inhibited the growth; inhibition of growth (Pleisiomonas sp.; Plesiomonas species): inhibited; zone of inhibition at 150000 µg/disc (Shigella sp.): 6 mm; zone of inhibition at 100 mg/mL (Candida abicans): 6 mm; zone of inhibition at 150 mg/mL (Candida abicans): 6 mm; zone of inhibition at 100 mg/mL (E. coli ATCC 25922): 6 mm; zone of inhibition at 150 mg/mL (E. coli ATCC 25922): 6 mm; zone of inhibition at 100 mg/mL (Salmonella typhimurium): 6 mm; zone of inhibition at 150 mg/mL (Salmonella typhimurium): 6 mm; zone of inhibition at 100 mg/mL (Citrobacter sp.): 6 mm; zone of inhibition at 150 mg/mL (Citrobacter sp.): 6 mm
4 | COc1cc(CCC(=O)/C=C(\N)CCc2ccc(O)c(OC)c2)ccc1O [compound 9, Amino- tetrahydrocurcumin] | 6 mm | 6 mm | 6 mm | 6 mm | 6 mm | 6 mm | 6 mm | 6 mm | 6 mm | 6 mm | 9 mm | 9 mm | 6 mm | 6 mm | 6 mm | 6 mm | 6 mm | 6 mm | 6 mm | 6 mm | zone of inhibition at 150000 µg/disc (Shigella sp.): 6 mm; zone of inhibition at 100 mg/mL (Candida abicans): 6 mm; zone of inhibition at 150 mg/mL (Candida abicans): 6 mm; zone of inhibition at 100 mg/mL (E. coli ATCC 25922): 6 mm; zone of inhibition at 150 mg/mL (E. coli ATCC 25922): 6 mm; zone of inhibition at 100 mg/mL (Salmonella typhimurium): 6 mm; zone of inhibition at 150 mg/mL (Salmonella typhimurium): 6 mm; zone of inhibition at 100 mg/mL (Citrobacter sp.): 6 mm; zone of inhibition at 150 mg/mL (Citrobacter sp.): 6 mm
